Read-outs that look alike come from different tables or passages of the source. Numbered stars: 1 amine (or outer) side, 2 acyl side, 3 side chain; on linkers, the order of the positions; unused ones are H or OH. Bridge positions count the residues as written; N and C are the ends. Square brackets hold non-standard residues; d marks the D form. Peptide text beside a SMILES is read from it. I, II: the chains in the order shown. Hexamethylenediamine = C(CCCN[*:2])CCN[*:1]; Dip = N[C@H](C(=O)O)C(c1ccccc1)c1ccccc1; Chg = N[C@H](C(=O)O)C1CCCCC1; NMeA = CN[C@@H](C)C(=O)O
What was measured:
EBC1-shPAK1 cells = assay: pharmarray viability screen, 200 compound library, with or without PAK1 knockdown (CellTiter-Glo); type: cell-based, human; settings: for EC50: Homo sapiens
SK-MES-1 = assay: Cell Titer Glo viability after PAK1 siRNA and BV6; type: cell-based, human; settings: transient PAK1 siRNA followed by 5 μM BV6
Protocol: (§1) FIG. 7—(A) Combinatorial accumulation of cleaved PARP and caspase-3 by PAK1 and IAP antagonism. Cells were incubated with Dox and […] for indicated time points, lysed and then used for Western blot analysis (B) Dual PAK1 and IAP inhibition results in a synergistic decrease in viability of SK-MES-1 (squamous subtype) and NCI-H441 (adenocarcinoma subtype) NSCLC cells. Cellular ATP consumption was determined via Cell Titer Glo assay following transient siRNA-mediated inhibition of PAK1 and 5 μM BV6 treatment as indicated.
(§2) The prosurvival activity of IAP proteins is antagonized by the second mitochondrial activator of caspases (SMAC) (C. Du et al., Cell 2000 102:33-42; A. M. Verhagen, et al. Cell 2000 102:43-53) and a number of antagonists have been described that mimic SMAC amino-terminal peptides to disrupt the association of IAP with SMAC and activated caspase-9 (K. Zobel et al., ACS Chem. Biol. 2006 1:525-533; E. Varfolomeev et al., Cell 2007 131:669-681). In particular, BV6 (C. Ndubaku et al., Future Med. Chem. 2009 1(8):1509) represents one such class of small molecule antagonist that binds to baculovirus TAP repeat (BIR) domains and promotes rapid auto-ubiquitination and proteasomal degradation of c-TAP 1 and cIAP-2 (Zobel supra). […]

NCI-H441 = assay: Cell Titer Glo viability after PAK1 siRNA and BV6; type: cell-based, human; settings: transient PAK1 siRNA followed by 5 μM BV6
Protocol: as §1, §2

[1] = system: SKMES-1, Calu-6, Cal-120 cells; assay: CellTiter-Glo viability after PAK1 and PAK2 siRNA plus MEK and PI3K inhibitors; type: cell-based, human; settings: with PAK1 and PAK2 siRNA, 3 days
Protocol: FIG. 11—Combinatorial effect of PAK1, PAK2, MEK and PI3K inhibition on tumor cell viability. CellTiter-Glo® (CTG) assays of cellular viability were performed following PAK1 and PAK2 siRNA transfection and compound treatment for 3 days, as indicated.
Taken together, these studies provide strong preclinical support that breast and NSCLC may provide several opportunities for rational combination therapies with PAK1 inhibitors. In one embodiment of the present invention there is provided a method of treating tumors comprising contacting the tumor with a PAK 1 inhibitor and a second anti-hyperproliferative compound.

MDA-MB-175 cells = assay: Annexin V/PI fluorescence-activated cell sorting after IPA-3 for 48 h; type: cell-based, human
Text: FIG. 1-Analysis of PAK1 genomic amplification and functional role in human breast tumors. (A) Genomic Identification of Significant Targets in Cancer (GISTIC) analysis of 11q13 copy number gains. Points are proportionately spaced and arranged in genome order. Vertical line represents chromosome location of the PAK1 gene. […] (B) PAK1 DNA copy and mRNA expression dot plot depicts the relationship of DNA copy number to the 226507 at Affymetrix MAS 5.0 signal for 51 tumor samples. The Pearson correlation statistic (0.75) is shown for the plot. The solid line represents the best-fit line through these points. (C) Increasing proportion of Annexin V-positive cells following knockdown of PAK1 expression is shown for 3 breast cancer cell lines with focal PAK1 genomic amplification, MDA-MB-175, HCC1500 and MDA-MB-134 IV. Cells were harvested 3-5 days following transient transfection of pooled siRNA oligonucleotides. (D) Fluorescence-activated cell sorting analysis for Annexin V/PI. MDA-MB-175 cells were cultured in the presence or absence of IPA-3 for 48 h. Annexin V/PI staining was then done to assess apoptosis/necrosis. […]
To ascertain the role of PAK1 in cell survival, the quantity of cytoplasmic histone-associated DNA fragments was quantified using the Cell Death Detection ELISA Plus kit from Roche (Mannheim, Germany). […]

EBC-1 cells [2] = assay: cell killing by pharmacological PAK or Rac1 inhibitors combined with IAP inhibition; type: cell-based, human; settings: pharmacological inhibitors of PAK or Rac1 catalytic activity; FIG. 7A
Text: The prosurvival activity of IAP proteins is antagonized by the second mitochondrial activator of caspases (SMAC) (C. Du et al., Cell 2000 102:33-42; A. M. Verhagen, et al. Cell 2000 102:43-53) and a number of antagonists have been described that mimic SMAC amino-terminal peptides to disrupt the association of IAP with SMAC and activated caspase-9 (K. Zobel et al., ACS Chem. Biol. 2006 1:525-533; E. Varfolomeev et al., Cell 2007 131:669-681). In particular, BV6 (C. Ndubaku et al., Future Med. Chem. 2009 1(8):1509) represents one such class of small molecule antagonist that binds to baculovirus TAP repeat (BIR) domains and promotes rapid auto-ubiquitination and proteasomal degradation of c-TAP 1 and cIAP-2 (Zobel supra). Consistent with the small molecule screening data, strong combinatorial activity was confirmed for dual inhibition of PAK1 and IAP in EBC-1 cells (FIG. 5A). […] To further explore this apparent synergy we investigated possible molecular mechanisms of PAK1 and IAP inhibition on the induction of apoptosis. […] Lastly, additional NSCLC cell lines, including those that are only minimally responsive to the activity of either single agent, were examined for anti-tumor efficacy resulting from combined inhibition of PAK1 and IAP.

[3] = system: Cells transfected with XIAP-specific siRNA; assay: Cell Titer Glo viability after XIAP siRNA and PAK SMI; type: cell-based; settings: XIAP siRNA 48 h, then PAK SMI 72 h; p<0.0001
Protocol: Cells were transfected with non-targeting control (NTC) or XIAP-specific siRNA oligonucleotides for 48 h prior to treatment with DMSO or PAK SMI as indicated for an additional 72 h. Cell viability was determined via Cell Titer Glo assay and results represent mean±standard deviation from three experiments. (B) Combined antagonism of XIAP and PAK1 promotes efficient cleavage of PARP and caspase-3. XIAP siRNA oligonucleotides were transfected for 72 h prior to treatment with DMSO or […] PAK SMI.

EBC-1 cells [4] = assay: PF-3758309 with BV6, in vitro combination efficacy, 4-day CellTiterGlo viability assay (Calcusyn); type: cell-based, human; settings: Chou and Talalay method, CI ≦0.3 = strong synergy
Protocol: FIG. 10—Combination of ATP-competitive pan-PAK inhibitor PF-3758309 (B. W. Murray et al. Proc. Nat. Acad. Sci. USA 2010 107(20):9446-9471 and IAP small molecule antagonist results in apoptosis of squamous NSCLC cells. (A) Catalytic inhibition of PAK1 via PF-3758309 treatment was tested with BV6 for in vitro combination efficacy in EBC-1 cells using a 4-day CellTiterGlo viability assay. Calcusyn, a program utilizing the Chou and Talalay (Chou T C, Talalay P. Quantitative analysis of dose-effect relationships: the combined effects of multiple drugs or enzyme inhibitors. Adv. Enzyme Regul. 1984; 22:27-55) method of calculating synergy, was used to calculate the combination index and, thus, determine the level of synergy. Strong synergy, as indicated by combination index (CI) values ≦0.3, was observed (CI=0.113).
A determination of a synergistic interaction between a PAK1 inhibitor and a second anti-hyperproliferative agent may be based on the results obtained from the assays described herein. The combinations provided by this invention have been evaluated in several assay systems, and the data can be analyzed utilizing a standard program for quantifying synergism, additivism, and antagonism among anticancer agents. The program preferably utilized is that described by Chou and Talalay, in “New Avenues in Developmental Cancer Chemotherapy,” Academic Press, 1987, Chapter 2. […]

[5] = single agent vs combination with PAK1 knockdown
[6] = 72 h, read-out: Single agent EC50
[7] = EBC-1-shPAK1 cells without PAK1 knockdown, 72 hr compound treatment, read-out: Single agent EC50
[8] = PAK1 knockdown shRNA (300 ng/mL doxycycline 3 days prior) and compound, 72 hr, read-out: Combo PAKi EC50

## O=c1[nH]c2ccccc2n1C1CCN(Cc2ccc(-c3nc4cc5[nH]cnc5cc4nc3-c3ccccc3)cc2)CC1 [Akt inhibitor VIII]
EBC1-shPAK1 cells; [5]
  Fold change in EC50: 1.58

## CN[C@@H](C)C(=O)N[C@H](C(=O)N1CCC[C@H]1C(=O)N[C@H](C(=O)NCCCCCCNC(=O)[C@@H](NC(=O)[C@@H]1CCCN1C(=O)[C@@H](NC(=O)[C@H](C)NC)C1CCCCC1)C(c1ccccc1)c1ccccc1)C(c1ccccc1)c1ccccc1)C1CCCCC1 [BV6] (I: H-[NMeA][Chg]P[Dip] / II: H-[NMeA][Chg]P[Dip]; linker I:C-II:C via Hexamethylenediamine)
SK-MES-1
  cell viability: significant reduction
NCI-H441
  cell viability: significant reduction
EBC1-shPAK1 cells; [5]
  Fold change in EC50: 57.54

## CS(=O)(=O)N1CCN(Cc2cc3nc(-c4cccc5[nH]ncc45)nc(N4CCOCC4)c3s2)CC1 [GDC-0941]
[1]
  combinatorial efficacy, reduced cellular viability: Combinatorial efficacy

## Oc1ccc2ccccc2c1SSc1c(O)ccc2ccccc12 [IPA-3]
MDA-MB-175 cells
  induction of apoptosis, fold increase (Annexin-V/propidium iodide): 7 fold
EBC-1 cells [2]
  cell killing combined with IAP inhibition: enhanced cell killing

## CCN(CC)CCCC(C)Nc1nc(C)cc(Nc2ccc3nc(C)cc(N)c3c2)n1 (stereo not drawn) [NSC23766]
EBC-1 cells [2]
  cell killing combined with IAP inhibition: enhanced cell killing

## Cc1nc(Nc2n[nH]c3c2CN(C(=O)N[C@H](CN(C)C)c2ccccc2)C3(C)C)c2sccc2n1 [PF-3758309]
[3]
  proapoptotic activity with XIAP down-regulation: potentiates the proapoptotic activity
EBC-1 cells [4]
  combination index (CI): 0.113
EBC-1 cells [2]
  cell killing combined with IAP inhibition: enhanced cell killing

## N#CC(=C(/N)Sc1ccccc1N)/C(C#N)=C(\N)Sc1ccccc1N [U0126]
EBC1-shPAK1 cells
  Fold change in EC50: 8.45
EBC1-shPAK1 cells; [6]
  EC50: 19.5 µM
EBC1-shPAK1 cells; read-out: Combo PAKi EC50
  EC50: 2.3 µM

## COc1cc2c(Nc3ccc(Br)cc3F)ncnc2cc1OCC1CCN(C)CC1 [ZD6474]
EBC1-shPAK1 cells; [7]
  EC50: ≥ 20 µM
EBC1-shPAK1 cells; [8]
  EC50: 6.88 µM
EBC1-shPAK1 cells; [5]
  Fold change in EC50: 2.91

## CN(C)c1nc(N(C)C)nc(N(C)C)n1 [altretamine]
EBC1-shPAK1 cells; [7]
  EC50: ≥ 20 µM
EBC1-shPAK1 cells; [8]
  EC50: 3.94 µM
EBC1-shPAK1 cells; [5]
  Fold change in EC50: 5.07

## Cc1nc(Nc2ncc(C(=O)Nc3c(C)cccc3Cl)s2)cc(N2CCN(CCO)CC2)n1 [dasatinib]
EBC1-shPAK1 cells; [7]
  EC50: 8.29 µM
EBC1-shPAK1 cells; [8]
  EC50: 1.53 µM
EBC1-shPAK1 cells; [5]
  Fold change in EC50: 5.43

## C#Cc1cccc(Nc2ncnc3cc(OCCOC)c(OCCOC)cc23)c1 [erlotinib]
EBC1-shPAK1 cells
  Fold change in EC50: 15.02
EBC1-shPAK1 cells; [6]
  EC50: ≥ 20 µM
EBC1-shPAK1 cells; read-out: Combo PAKi EC50
  EC50: 1.56 µM

## CS(=O)(=O)CCNCc1ccc(-c2ccc3ncnc(Nc4ccc(OCc5cccc(F)c5)c(Cl)c4)c3c2)o1 [lapatinib]
EBC1-shPAK1 cells; [7]
  EC50: 6.31 µM
EBC1-shPAK1 cells; [8]
  EC50: 0.86 µM
EBC1-shPAK1 cells; [5]
  Fold change in EC50: 7.34

## O=C1[O][Pt]2([NH][C@@H]3CCCC[C@H]3[NH]2)[O]C1=O [oxaliplatin]
EBC1-shPAK1 cells
  Fold change in EC50: 4.23
